# Laboratory results from patent publication US20260250412A1, “COMBINATION OF ANTIBODY-DRUG CONJUGATE AND ANTI-PD-1 ANTIBODY, AND USE THEREOF” (GENEQUANTUM HEALTHCARE (SUZHOU) CO., LTD., priority 2023, published 2026).
# “And” between values parts separate entries of the source, which are not always exact repeats. Equal values may be shown once.
# Columns and labels:
# [1] = test system: human pharyngeal squamous cells carcinoma FaDu; assay: Cell proliferation, CellTiter Glo, 96 h, FaDu; type: cell-based
# Method: A positive control group was set: 100 μL Puromycin at a concentration of 10 μg/mL was added to each well. […] After the administration was completed, the cells were moved to the incubator and incubated for 96 h. The 96-well plate was removed from the 37° C. cell incubator and equilibrated to room temperature for 30 minutes. After the medium was discarded, 100 μL of DMEM and 50 μL of CellTiter Glo reagent were added to each well, and the cells were shaken in the dark at 200 rpm for 15 minutes, and the luminescent signal reflecting cell viability was detected by a microplate reader.
# [2] = test system: human breast cancer cells MDA-MB-468; assay: Cell proliferation, CellTiter Glo, 96 h, MDA-MB-468; type: cell-based; details: MDA-MB-468, 96 h
# [3] = test system: NCI-N87 mouse xenograft tumor; assay: In vivo efficacy, NCI-N87 mouse xenograft tumor; design: species or system BALB/c nude mice; details: 3 mg/kg; for Tumor volume (mm^3) Day 0: baseline at grouping
# [4] = test system: Trop2-positive cells BxPC-3 and Trop2-negative HepG2 cells; assay: Bystander killing in BxPC-3/HepG2 co-culture assay (BxPC-3:HepG2=2:1); type: cell-based, human
# Method: (§1) After the treatment, the cells were moved to the incubator and incubated for 96 h. After the incubation, cells were digested, and washed once with 1×PBS, then transferred to a flow tube, and centrifuged at 2000 rpm for 3 min. The supernatant was then discarded, and the cell amount and cell viability were detected. […] The cells were washed with 1×PBS, the supernatant was discarded after centrifugation, 200 μL of 5 μg/mL human IgG Fe antibody was added, and the resulting cells were continued to incubate at 4° C. for 30 min after mixing. Finally, the cells were washed with 1×PBS, the supernatant was discarded after centrifugation, and the cells were resuspended in PBS, detected by flow cytometry and analyzed by FlowJo software.
# [5] = test system: Trop2-positive cells BxPC-3 and Trop2-negative cells HepG2; assay: Bystander killing in BxPC-3/HepG2 co-culture assay (BxPC-3:HepG2=4:1); type: cell-based, human; details: 10 nM, 96 h
# Method: as §1
# [6] = test system: Trop2 positive cancer cells NCI-N87; assay: Cytotoxicity assay, CellTiter-Glo, 168 h, NCI-N87; type: cell-based, human
# Method: In brief, 3000 to 5000 cells were plated in 96-well plates, and cells were able to attach overnight. Cells were treated with indicated drugs with various concentrations for 168 h. Cell viabilities were examined by CellTiter-Glo® Luminescent Cell Viability Assay, and percentage of cell viability was calculated.
# [7] = test system: MC38-hTROP2 colon carcinoma; assay: In vivo efficacy, MC38-hTROP2 colon carcinoma syngeneic CDX model; design: species or system C57BL/6J mice; details: Table 22, monotherapy 3 mg/kg
# Method: Objective: To evaluate the in vivo anti-tumor efficacy of the combination of ADC drug ADC2 with Anti-mPD-1 in mice bearing colon carcinoma Trop2-high CDX model.
# I. MC38-hTROP2 cells (Biocytogen) in exponential growth stage were collected and counted for tumor inoculation. 0.5×10^6 cells in 0.1 mL of PBS were used to subcutaneously inject into the right flank of SPF female C57BL/6J mice aged 6-8 weeks.
# II. 6 days after inoculation, the tumor diameter was measured with a caliper and the tumor volume was calculated according to the formula V=0.5 a×b^2 (wherein a is the long diameter of the tumor and b is the short diameter of the tumor). When the mean tumor volume was about 100-300 mm^3, the mice were randomized into vehicle group, ADC2 3 mg/kg group, DS1062a 3 mg/kg group, Anti-mPD-1 (Bio X cell, 825822J1) 1 mg/kg group, ADC2+Anti-mPD-1 combination group and DS1062a+Anti-mPD-1 combination group. Each group includes 6 mice. The day of first administration is defined as day 0. Mice in the vehicle group were given the solvent of ADC2 and the solvent of Anti-mPD-1 with the same frequency and administration route. The tumor volume of mice in each group was measured twice a week.
# [8] = test system: BxPC-3 mouse xenograft tumor; assay: In vivo efficacy, BxPC-3 mouse xenograft tumor; design: species or system BALB/c nude mice; details: for T/C (%) / TGI (%) / Tumor volume (mm^3) Day 0 / tumor growth inhibition (in words): 3 mg/kg; for Tumor volume (mm^3) Day 0: baseline at grouping
# Method: I. The logarithmic growth phase BxPC-3 were collected and the cell density was adjusted to 10×10^6 cells/mL with Matrigel buffer (PBS:Matrigel=1:1). 0.2 mL of the prepared BxPC-3 cell suspension was subcutaneously injected into the right scapula of SPF female BALB/c nude mice aged 6-8 weeks.
# II. The tumor diameter was measured with a vernier caliper and the tumor volume was calculated according to the formula V=0.5a×b^2 (where a is the longest diameter of the tumor and b is the shortest diameter of the tumor). […] Animals in each group were administered by tail vein injection, and the control group was given an equal volume of vehicle. […] T/C and TGI values were calculated using tumor volume. The calculation formula is as follows: T/C %=TRTV/CRTV×100% (TRTV: RTV of the treatment group; CRTV: RTV of the vehicle control group). The relative tumor volume (RTV) was calculated based on the results of tumor measurement, and the calculation formula was RTV=Vt/V0, where V0 was the average tumor volume measured at the time of grouping (i.e., D0), Vt was the average tumor volume at one measurement, and TRTV and CRTV took the same day of data.
# 6 days after cell inoculation, when the average tumor volume was about 159 mm^3, animals were randomly divided into vehicle control group, ADC-5 3 mg/kg group, ADC-6 3 mg/kg group, and DS1062a 3 mg/kg group, with 6 animals in each group.
# [9] = Table 6, same process as effect example 1.2
substance,measurement,setting,value
DS1062a,inhibition of proliferation (in words),[1],could inhibit the proliferation of FaDu cells
same,IC50,[1]; Table 7,0.551 nM
same,inhibition of proliferation (in words),[2],could inhibit the proliferation of MDA-MB-468 cells
same,IC50,[2]; Table 9,2.5 nM
same,Tumor volume (mm^3) Day 32,"[3]; Table 14, single dose",658 mm^3 and 658 ± 43 mm^3
same,T/C (%),"[3]; Table 14, single dose, Day 32",49.98%
same,TGI (%),"[3]; Table 14, single dose, Day 32",60.23%
same,Tumor volume (mm^3) Day 0,"[3]; Table 14, single dose",228 ± 20 mm^3
same,Tumor volume (mm^3) Day 28,[3]; Table 17,255 mm^3 and 255 ± 35 mm^3
same,T/C (%),"[3]; Table 17, Day 28",40.30%
same,TGI (%),"[3]; Table 17, Day 28",84.96%
same,Tumor volume (mm^3) Day 0,[3]; Table 17,188 ± 11 mm^3
same,Tumor volume (mm^3) Day 42,[3]; Table 20,437 mm^3 and 437 ± 89 mm^3
same,T/C (%),"[3]; Table 20, Day 42",35.67%
same,TGI (%),"[3]; Table 20, Day 42",76.58%
same,Tumor volume (mm^3) Day 0,[3]; Table 20,196 ± 14 mm^3
same,tumor growth inhibition (in words),"[3]; effect example 3.1.2, after 32 days",able to significantly inhibit tumor growth
same,tumor growth inhibition (in words),"[3]; effect example 3.2.2, after 28 days",can significantly inhibit NCI-N87 tumor growth
same,tumor growth inhibition (in words),"[3]; effect example 3.3.2, after 42 days",could significantly inhibit tumor growth
same,Amount of cells (10^4) BxPC-3,"[4]; Table 5, 10 nM",12.25 10^4
same,Amount of cells (10^4) HepG2,"[4]; Table 5, 10 nM",144.75 10^4
same,Cell proportion (%) BxPC-3,"[4]; Table 5, 10 nM",7.8%
same,Cell proportion (%) HepG2,"[4]; Table 5, 10 nM",92.2%
same,Number of viable cells (10^4),"[4]; Table 5, 10 nM, whole co-culture",157.0 10^4
same,Amount of cells (10^4) BxPC-3,[4]; [9],12.25 10^4
same,Amount of cells (10^4) HepG2,[4]; [9],144.75 10^4
same,Cell proportion (%) BxPC-3,[4]; [9],7.8%
same,Cell proportion (%) HepG2,[4]; [9],92.2%
same,Number of viable cells (10^4),"[4]; Table 6, same process as effect example 1.2, whole co-culture",157.0 10^4
same,bystander killing effect (in words),[4]; effect example 1.3,had bystander killing effects
same,Amount of cells (10^4) BxPC-3,[5]; Table 4,10.88 10^4
same,Amount of cells (10^4) HepG2,[5]; Table 4,33.72 10^4
same,Cell proportion (%) BxPC-3,[5]; Table 4,24.4%
same,Cell proportion (%) HepG2,[5]; Table 4,75.6%
same,Number of viable cells (10^4),"[5]; Table 4, whole co-culture",44.6 10^4
same,bystander killing effect (in words),[5]; effect example 1.1,had bystander killing effects
same,IC50,[6],2.1 nM
same,TGI (%),[7]; day 28,12.8%
same,Tumor volume (mm^3),"[7]; end day (day 28), mean",1415 mm^3
same,Tumor volume (mm^3) Day 35,"[8]; Table 13, 3 mg/kg, tail vein injection",847 mm^3 and 847 ± 104 mm^3
same,T/C (%),"[8]; Table 13, Day 35",64.05%
same,TGI (%),"[8]; Table 13, Day 35",40.54%
same,Tumor volume (mm^3) Day 0,"[8]; Table 13, tail vein injection",151 ± 12 mm^3
same,Tumor volume (mm^3) Day 28,"[8]; Table 16, 3 mg/kg",540 mm^3 and 540 ± 74 mm^3
same,T/C (%),"[8]; Table 16, Day 28",58.49%
same,TGI (%),"[8]; Table 16, Day 28",48.52%
same,Tumor volume (mm^3) Day 0,[8]; Table 16,151 ± 12 mm^3
same,Tumor volume (mm^3) Day 42,"[8]; Table 19, 3 mg/kg",302 mm^3 and 302 ± 73 mm^3
same,T/C (%),"[8]; Table 19, Day 42",27.69%
same,TGI (%),"[8]; Table 19, Day 42",84.60%
same,Tumor volume (mm^3) Day 0,[8]; Table 19,159 ± 11 mm^3
same,tumor growth inhibition (in words),"[8]; effect example 3.1.1, compared with the control group",could significantly inhibit tumor growth
same,tumor growth inhibition (in words),"[8]; effect example 3.3.1, after 42 days",could significantly inhibit tumor growth
